The subject of one assay is Aorta. The assay can be described thus: Inhibition of contractions in aorta (indication of selectivity). The class given is cell-based.
Assay [1] has as its system swelling induced chloride channel current. The assay can be described thus: Chloride channel blockade, swelling induced chloride current in bladder cells. The class given is cell-based, guinea pig. Particulars: bladder cell, ICl type swelling (210 mOsm), 60 mV. The text has this:
Normal human bronchial epithelial cells (NHBE) were commercially available from Clonetics Corporation (San Diego, Calif.) and bladder cells were isolated from rat bladder.
The normal external solution contained (in mM): N-methyl d-Glucamine chloride (NMDGCl). 140, MgCl2 2, CaCl2 2 and 4-(2-hydroxyethyl)-1-piperazine ethanesulfonic acid (HEPES) 10. The normal pipette solution contained (in mM): NMDGCl. 125, HEPES 10, MgCl2 2, ethylenebis(oxonitrilo)tetaaacetate (EGTA) 2, and ATPMg 5, the pH adjusted to 7.3 with TRIS. To identify the leak conductance from depolarization, internal Cl ion concentration was reduced to 40 mM using glutamic acid (ECl approximately -31 mV according Nernst equation). The osmolarity for standard external solution was about 280 mOsm. Hypotonic solutions were obtained by diluting the normal external solution with distilled water.
The whole cell voltage clamp recording techniques were utilized to record membrane ionic currents. The volume of the recording chamber was 1 ml and the rate of superfusion was 4 ml/min. Membrane currents were recorded using an Axopatch 200A Patch Clamp Amplifier (Axon Instruments, Inc., Foster City, Calif.). Under voltage clamp conditions, the cells were stimulated at 0.2 Hz to be sure channels were completely recovered between two voltage steps. […]

Assay [2] deals with Isolated Rat Bladder Strips. The assay is described as follows: Inhibition of contractions in isolated rat bladder strips. Type of assay: cell-based. Here is the method:
Sprague-Dawley rats (150-200 g) are rendered unconscious by CO2 asphyxiation and then euthanized by cervical dislocation. […] The bladder is opened and then cut into strips 1-2 mm in width and 7-10 mm in length. The strips are subsequently suspended in a 10 mL tissue bath under an initial resting tension of 1.5 g. The strips are held in place by two surgical clips one of which is attached to a fixed hook while the other is attached to an isometric force transducer. […] The carbachol is then washed out and the tissue allowed to relax to its resting level of activity. Following a further 30 min period of recovery an additional 15 mM KCl are introduced into the tissue bath. […] Following stabilization of this enhanced level of contractile activity, incremental increases in the concentration of test compound or vehicle are introduced into the tissue bath. Contractile activity is measured for each compound or vehicle concentration during the last minute of a 30 minute challenge.

For assay [3], the target named is T1, calcium-dependent large conductance potassium channels (maxi K^+) (Rattus norvegicus, UniProt Q62976).
T1 construct: endogenous in cells; host or cells: freshly isolated rat detrusor (urinary bladder smooth muscle) cells
T1 sequence (Q62976 whole entry): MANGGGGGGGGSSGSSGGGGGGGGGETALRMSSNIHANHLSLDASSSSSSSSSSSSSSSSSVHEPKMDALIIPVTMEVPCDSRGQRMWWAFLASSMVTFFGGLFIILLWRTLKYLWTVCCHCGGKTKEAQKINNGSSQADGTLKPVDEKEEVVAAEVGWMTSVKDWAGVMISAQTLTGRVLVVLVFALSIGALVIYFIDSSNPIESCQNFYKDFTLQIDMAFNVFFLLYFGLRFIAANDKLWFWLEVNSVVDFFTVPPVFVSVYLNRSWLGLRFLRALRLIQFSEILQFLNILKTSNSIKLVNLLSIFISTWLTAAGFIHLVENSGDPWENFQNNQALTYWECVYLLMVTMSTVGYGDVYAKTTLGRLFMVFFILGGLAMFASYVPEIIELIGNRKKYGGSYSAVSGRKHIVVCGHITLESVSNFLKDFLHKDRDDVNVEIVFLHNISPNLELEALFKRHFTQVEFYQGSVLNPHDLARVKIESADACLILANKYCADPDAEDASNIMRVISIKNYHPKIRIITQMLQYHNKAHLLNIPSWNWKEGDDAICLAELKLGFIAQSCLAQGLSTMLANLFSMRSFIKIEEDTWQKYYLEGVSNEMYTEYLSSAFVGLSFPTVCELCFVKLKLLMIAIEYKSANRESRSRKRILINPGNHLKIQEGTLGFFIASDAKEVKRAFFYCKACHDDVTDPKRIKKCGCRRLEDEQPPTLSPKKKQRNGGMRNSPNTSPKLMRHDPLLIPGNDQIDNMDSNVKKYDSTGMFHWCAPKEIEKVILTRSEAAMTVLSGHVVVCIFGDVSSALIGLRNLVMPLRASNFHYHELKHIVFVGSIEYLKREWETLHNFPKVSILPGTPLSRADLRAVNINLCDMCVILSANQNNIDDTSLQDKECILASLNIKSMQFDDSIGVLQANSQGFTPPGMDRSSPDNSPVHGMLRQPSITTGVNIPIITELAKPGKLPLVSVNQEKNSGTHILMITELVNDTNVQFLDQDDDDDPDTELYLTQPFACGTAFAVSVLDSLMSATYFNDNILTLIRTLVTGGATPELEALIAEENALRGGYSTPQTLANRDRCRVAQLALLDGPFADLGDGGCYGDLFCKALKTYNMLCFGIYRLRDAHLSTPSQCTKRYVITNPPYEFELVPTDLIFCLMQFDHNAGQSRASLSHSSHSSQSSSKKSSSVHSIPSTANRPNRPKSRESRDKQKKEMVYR
T1 sequence (P97678 whole entry partner): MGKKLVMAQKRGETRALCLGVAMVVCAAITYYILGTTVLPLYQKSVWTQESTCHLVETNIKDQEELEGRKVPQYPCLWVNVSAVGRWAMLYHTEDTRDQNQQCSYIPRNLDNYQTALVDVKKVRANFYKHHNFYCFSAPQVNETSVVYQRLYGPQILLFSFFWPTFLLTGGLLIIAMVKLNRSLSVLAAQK
The assay is described as follows: Potassium channel activation, whole cell patch clamp in isolated rat detrusor cells. Type of assay: cell-based. Particulars: 10 μM in superfusate; isolated rat bladder cells. On the procedure: Potassium channel activation by compounds of the present invention was established by examining the effect of the compound of Example 1 on calcium-dependent large conductance potassium channels (maxi K^+) as follows:
Rat detrusor cells were isolated in a manner previously described for guinea-pig detrusor (Sheldon and Argentieri, 1995). Male Sprague-Dawley rats (200-400 grams) were euthanized by CO2 inhalation and exsanguination. Their urinary bladders were rapidly removed and placed in 37° C. physiological solution with the following composition (mM): Na glutamate (80.0), NaCl (54.7), KCl (5.0), NaHCO3 (25.0), MgCl2.2H2 O (2.5), D-glucose (11.8) and CaCl2 (0.2) gassed with CO2 --O2, 95%/5% for a final pH of 7.4. The dome of the bladder was isolated from the trigon region and the mucosa was removed. This tissue was then cut into 2-3 mm wide strips and placed in fresh buffer for 1 hour. Tissues were then transferred into 10.0 ml of an isolation buffer containing the above composition plus collagenase type VIII (1.0 mg/ml) and pronase (0.25 mg/ml). After 10 minutes the isolation buffer was replaced with fresh isolation buffer for an additional 10 min. […]
Whole cell recordings were made using broken patch assess. […] After stability was achieved control currents were recorded. […] Currents were recorded for 5 to 10 minutes or until compound effects reached steady state. […]
(The patch-clamp technique gives a direct electrical read-out from membranes.)

Consider `C/C(=C\c1ccc(C(F)(F)F)cc1)C(=O)Nc1ccccc1C(=O)[O-].[Li+]` [Example 1, Step 4, (E)-2-[2-Methyl-3-(4-trifluoromethyl-phenyl)-acryloylamino]-benzoic acid lithium salt], for which the IC50 stood at 41.9 ± 8.4 µM in the assay on Aorta and 1.07 ± 0.37 µM in assay [2] (contractions enhanced by additional 15 mM KCl, isolated rat bladder strips, read-out: IC50 /μM Bladder (B)). Besides, the “% blockade 20 μM” value in assay [1] was 67%. Besides, in assay [2] (ratio aorta/bladder, indication of selectivity), the “IC50 (A)/ IC50 (B)” value is 39.6. Further, the “effect on outward current” value in assay [3] was “increase in outward current that was reversible upon washout”.
